Reference: US10538486B2, “Hydroxamic acid type contrast agent containing radioisotope fluoride, preparation method and application thereof” (Institute of Nuclear Energy Research, Atomic Energy …, priority 2017, dated 2020)

Key:
Type in all cases: biochemical
Conditions in all cases: 4 concentrations in DMSO, 30 min at room temperature, fluorescence 355/460 nm, FIG. 5
HDAC8 = molecular target: T1, HDAC8 (Homo sapiens, UniProt Q9BY41); assay: HDAC Fluorometric Assay Kit enzyme activity assay, HDAC8
T1 construct: purchased Enzolifesciences
T1 sequence (Q9BY41 1-377): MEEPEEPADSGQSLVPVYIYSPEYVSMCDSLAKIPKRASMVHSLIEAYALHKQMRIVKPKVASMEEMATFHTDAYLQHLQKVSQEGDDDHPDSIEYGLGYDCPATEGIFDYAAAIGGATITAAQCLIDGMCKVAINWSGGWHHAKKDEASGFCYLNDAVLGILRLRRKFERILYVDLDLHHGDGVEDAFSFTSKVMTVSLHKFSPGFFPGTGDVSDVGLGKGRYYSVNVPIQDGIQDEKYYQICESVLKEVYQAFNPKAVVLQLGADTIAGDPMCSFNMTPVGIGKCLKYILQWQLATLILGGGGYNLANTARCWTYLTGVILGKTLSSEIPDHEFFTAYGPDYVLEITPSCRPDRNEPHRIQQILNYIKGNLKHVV
Experimental: (§1) To further investigate whether the fluorine-18-hydroxamic acid-based compound is useful as a HDAC inhibitor, the inhibitory effect on HDAC is assayed with the fluorine-19-hydroxamic acid-based compound. The fluorine-18-hydroxamic acid-based compound and the fluorine-19-hydroxamic acid-based compound have the same chemical properties, except that the fluorine-18-hydroxamic acid-based compound has radioactivity, and the fluorine-19-hydroxamic acid-based compound has no radioactivity.
(§2) The fluorine-19-hydroxamic acid-based compound was diluted in dimethyl sulfoxide (DMSO) to give 4 different concentrations. The enzyme activity of various subtypes of HDAC was assayed with a HDAC Fluorometric Assay Kit (available from Enzolifesciences). The fluorine-19-hydroxamic acid-based compound (10 μL) and enzyme (15 μL) were added to a white opaque 96-well plate, and then a substrate (25 μL) was added and incubated for 30 min at room temperature. After incubation, the fluorescence intensity of the 96-well plate was measured on a microplate reader at an excitation wavelength of 355 nm and an emission wavelength of 460 nm, and the fluorescence intensity measured was analyzed by Graph Pad Prism 6 to calculate IC50 (as shown in FIG. 5).

HDAC3 = molecular target: T2, HDAC3 (Homo sapiens, UniProt O15379); assay: HDAC Fluorometric Assay Kit enzyme activity assay, HDAC3
T2 construct: purchased Enzolifesciences
Experimental: as §1, §2

HDAC6 = molecular target: T3, HDAC6 (Homo sapiens, UniProt Q9UBN7); assay: HDAC Fluorometric Assay Kit enzyme activity assay, HDAC6
T3 construct: purchased Enzolifesciences
T3 sequence (Q9UBN7 1-1215): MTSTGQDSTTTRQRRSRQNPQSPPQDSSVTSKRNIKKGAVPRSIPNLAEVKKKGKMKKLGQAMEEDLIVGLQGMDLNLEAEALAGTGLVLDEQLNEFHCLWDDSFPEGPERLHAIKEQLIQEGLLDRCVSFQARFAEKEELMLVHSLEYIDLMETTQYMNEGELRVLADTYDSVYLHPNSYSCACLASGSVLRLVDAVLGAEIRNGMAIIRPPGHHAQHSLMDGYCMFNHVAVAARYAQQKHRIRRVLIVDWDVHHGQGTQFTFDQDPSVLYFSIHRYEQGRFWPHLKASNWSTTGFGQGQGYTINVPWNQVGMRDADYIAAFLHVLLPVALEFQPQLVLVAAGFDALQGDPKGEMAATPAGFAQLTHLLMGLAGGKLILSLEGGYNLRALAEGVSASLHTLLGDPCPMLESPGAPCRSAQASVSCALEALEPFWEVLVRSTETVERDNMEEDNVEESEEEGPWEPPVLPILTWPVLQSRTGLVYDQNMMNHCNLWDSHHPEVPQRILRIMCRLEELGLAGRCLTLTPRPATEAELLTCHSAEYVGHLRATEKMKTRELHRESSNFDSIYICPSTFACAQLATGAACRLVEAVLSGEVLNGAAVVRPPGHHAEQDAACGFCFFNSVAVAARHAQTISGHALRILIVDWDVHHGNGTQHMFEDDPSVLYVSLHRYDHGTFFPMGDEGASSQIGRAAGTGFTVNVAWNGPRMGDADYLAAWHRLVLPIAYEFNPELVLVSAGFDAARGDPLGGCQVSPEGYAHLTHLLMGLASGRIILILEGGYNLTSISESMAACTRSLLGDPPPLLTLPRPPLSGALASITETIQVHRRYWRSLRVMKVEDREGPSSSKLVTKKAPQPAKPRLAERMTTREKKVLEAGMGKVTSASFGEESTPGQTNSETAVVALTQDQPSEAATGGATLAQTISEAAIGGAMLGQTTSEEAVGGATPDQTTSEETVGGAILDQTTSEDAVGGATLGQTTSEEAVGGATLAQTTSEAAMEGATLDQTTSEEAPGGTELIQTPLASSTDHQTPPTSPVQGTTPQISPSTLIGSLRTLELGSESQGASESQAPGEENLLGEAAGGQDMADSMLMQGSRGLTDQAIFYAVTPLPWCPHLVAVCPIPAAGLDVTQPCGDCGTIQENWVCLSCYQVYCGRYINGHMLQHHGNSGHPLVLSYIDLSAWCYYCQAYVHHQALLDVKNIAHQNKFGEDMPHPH
Experimental: as §1, §2

T2 sequence (O15379 whole entry, species assumed): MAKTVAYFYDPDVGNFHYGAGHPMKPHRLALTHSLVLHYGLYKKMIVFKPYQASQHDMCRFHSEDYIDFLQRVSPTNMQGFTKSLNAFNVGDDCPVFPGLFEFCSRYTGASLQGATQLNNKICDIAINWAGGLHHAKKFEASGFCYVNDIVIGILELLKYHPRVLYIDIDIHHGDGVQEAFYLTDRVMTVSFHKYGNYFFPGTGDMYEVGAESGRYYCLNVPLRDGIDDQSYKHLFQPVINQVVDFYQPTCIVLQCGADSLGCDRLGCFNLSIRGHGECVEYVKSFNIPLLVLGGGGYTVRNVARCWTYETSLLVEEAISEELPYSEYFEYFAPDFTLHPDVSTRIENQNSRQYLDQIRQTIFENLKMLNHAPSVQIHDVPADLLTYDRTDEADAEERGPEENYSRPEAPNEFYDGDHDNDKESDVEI
T2 sequence (O75376 395-489 partner limits assumed, species assumed): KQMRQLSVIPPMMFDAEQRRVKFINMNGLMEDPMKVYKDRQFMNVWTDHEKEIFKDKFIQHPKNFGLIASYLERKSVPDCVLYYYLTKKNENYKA

Cc1cc(F)ccc1OCCCC(=O)NO
selectively inhibited: IC50, inhibitory effect on HDAC8 (HDAC8) | IC50, inhibitory effect on HDAC3 (HDAC3) | IC50, inhibitory effect on HDAC6 (HDAC6)
